Source: patent US20130136722A1, “Methods of Ex Vivo Expansion of Blood Progenitor Cells, and Generation of Composite Grafts” (The Board of Trustees of The University of Illinois, priority 2011, published 2013)
Values joined by “and” are separate entries in the source; they are usually repeats but may differ in a detail not shown here. Equal entries are not always repeated.

How the values were obtained:
NOD/SCID mice = assay: Serial (secondary) transplantation of expanded CB cells; format: in vivo, mouse
[1] = tested on: genes implicated in HSC self-renewal, differentiation, expansion and maintenance; assay: Real time quantitative PCR of gene transcripts in re-isolated expanded CD34+ cells; format: cell-based, human
Procedure: RNA preparation and real time quantative PCR assays were performed using SYBR green dye (Life Technologies; Carlsbad, Calif.) and an ABI 7500 Fast Real-Time PCR system (Life Technologies) were used to quantitate gene expression in reverse-transcribed mRNA as described (Araki et al., 2007, Id.). Gene expression was calculated by relative quantitation, and all results were normalized to expression of GAPDH.
To investigate whether treating cells with CMA altered gene expression, transcript levels of several genes associated with hematopoietic stem cell (HSC) self-renewal and differentiation were compared in unmanipulated primary CD34^+ cells (day 0) and CD34^+ cells expanded in the presence or absence of CMA (5azaD/TSA) during ex vivo culture. […] In the absence of 5azaD/TSA treatment, transcript levels of these genes were reduced over the course of 9 days of culture, correlating well with poor in vivo hematopoietic reconstitution capacity of untreated cells compared to unmanipulated primary or 5azaD/TSA expanded CD34^+ cells. […] In addition, transcript levels of CDK inhibitor P21, which regulates the G1/S transition of the cell cycle, was reduced in CD34^+ cells expanded in the absence of CMAs, but was not reduced in 5azaD/TSA expanded cells (p=0.06). Reduced P21 levels are generally associated with shorter G1/S transition and faster rate of cell divisions. […] This was also consistent with previous results showing membrane tracking dye as well as bromodeoxyuridine (BrdU) pulse chase assays of CD34^+CD90^+ cells during expansion culture (Araki et al., 2007, Blood 109: 3570-78).

In the case of CCCC(CCC)C(=O)O [VPA, valproic acid], the “Secondary mouse BM chimerism (% human)” value (NOD/SCID mice; 10-30 × 10^6 unseparated BM cells from primary mouse, sacrificed 7 weeks later, individual mice) is reported as “Not Detectable”, the “Primary mouse BM chimerism (% human)” value (NOD/SCID mice; progeny of 1 × 10^4 primary CB cells treated ex vivo for 9 days, individual mice) is reported as 0.60 % human and 1.0 % human (2×) and 0.30 % human and 5.6 % human and the secondary hosts engrafted (NOD/SCID mice; serial transplantation from primary recipients) is reported as “none of the 5”. The “transcript levels of Alox5 in contrast to CD34+ cells expanded in 5azaD/TSA” value [1] was “significantly higher”, the “transcript levels of S100A8 and Alox5 in contrast to controls” value ([1]; FIGS. 5A, 5B) was “increased” and the “transcript levels of GATA1 compared with control cultures” value ([1]; day 3, FIG. 3B) was “significantly increased”.
